Experimental data as given in patent US11497706B2, “Antiperspirant and deodorant compositions” (The Procter & Gamble Company, priority 2017, dated 2022).
Values after ≈ are worked out from the molar mass of the structure shown. Counter-ions that a name gives are not always drawn. Like-named read-outs stand apart in the source and are kept apart here.

Assays:
C. mucofaciens = test: Tier 1 Anaerobic MIC Assay; type: cell-based, Corynebacterium mucofaciens (clinical isolate); conditions: for MIC: Corynebacterium, read-out: microbial inhibition concentration (MIC)
Text: (§1) 1. Tier 1 Anaerobic MIC Assay
(§2) The data in Table 2 above was generated with the following test method. The purpose of this assay is to determine if a compound or formulation has an antimicrobial effect in vitro.
(§3) It is understood that when not specifically noted in this procedure: • a) All materials, reagents and equipment required for this procedure are of appropriate design and condition of cleanliness and/or sterility as determined by their intended use. • b) The operator has been trained in aseptic technique and has been qualified to perform the procedure and accurately interpret the results. • c) All media required for this procedure was manufactured by a reputable commercial source egg. Difco, Merck etc. and has been stored and prepared as per manufacturer's instructions. • d) All routine laboratory controls, including but not limited to, media function and growth promotion tests, verification of sterility and use of positive and negative controls are being conducted.
(§4) Procedure: (All Procedures Performed in Anaerobic Chamber Except where Noted)
(§5) Incubator at 37° C.; 20-200 ul channel pipette; 5-50 ul channel pipette; 1250 ul 8 channel Thermo Scientific Matrix pipette; 96 well plate shaker (located in incubator); Beckman Coulter deep well cap mat #267005; Beckman Coulter deep 96 well plates #267007; Falcon 96 well tissue culture plates #353072; Vortexer; Culture tubes/caps Disposable sterile gloves; Sterile petri dishes; Standard microbiological lab equipment (sterile pipettes, syringes, tips, loops, etc.); Glass bottles/flasks for media; Autoclave; Parafilm; Spectrophotometer.
(§6) • 0.9% or 0.85% saline solution • BHI agar supplemented with 1% Tween 80 • BHI media supplemented with 1% Tween 80 3. Microbial Strains
Corynebacterium mucofaciens (clinical isolate)
(§7) Prior to testing streak organisms for isolation on BHI with 1% Tween 80 plates, wrap with parafilm and place in 37° C. incubator. When isolated colonies appear remove one representative colony from each plate and place each in 5 ml of BHI with 1% Tween 80 media. Incubate at 37° C. with shaking overnight. Inoculate 20 ml BHI with 1% Tween 80 (per 96 deep well plate to be tested) with 20 ul of the overnight culture (1-1000 dilution).
(§8) Compounds/formulations to be tested are diluted across a 96 deep well plate as shown below (for a 1% stock solution). 800 ul of 0.85% saline is added to wells A1 and B1 (as these will be the negative and positive control respectively). 800 ul each 1% stock solution+positive control are added to wells C1 through H1. 400 ul 0.85% saline are added to all other wells. 400 ul is then removed from #1 well added to the #2 well and mixed. This is then continued across the plate resulting in a 50% dilution between wells across the plate (this can be easily accomplished with an automatic 8 channel Matrix pipette set to withdraw, dispense and mix).
(§9) In row A of a 96 deep well plate pipette 180 ul of sterile BHI with 1% Tween 80 as a negative growth control. All other wells receive 180 ul of inoculum. From the master plate introduce 20 ul to the corresponding row in the test plate using an 8-channel pipette. Loaded plates are placed on a plate shaker in the 37° C. incubator and incubated overnight. The next day read the O.D. 600 on a plate reader. The MIC is the last well from the right that has no bacterial growth.

S. epidermidis = test: Tier 1 Anaerobic MIC Assay; type: cell-based, Staphylococcus epidermidis (clinical isolate); conditions: for MIC: Staphylococcus epidermidis, read-out: microbial inhibition concentration (MIC)
Text: as §1, §2, §3, §4, §5, §6
Staphylococcus epidermidis (clinical isolate)
as §7, §8, §9

[1] = tested on: two key underarm bacteria strains; test: Raw material microbial inhibition, summary in words; type: cell-based; conditions: C. mucofaciens and S. epidermidis
Text: The data in Table 2 above was generated with the following test method.

[2] = anaerobic, 37° C. overnight, O.D. 600

| Structure (SMILES) | MIC (C. mucofaciens; [2]) | MIC (S. epidermidis; [2]) | microbial inhibition concentration (MIC) (C. mucofaciens; [2]) | microbial inhibition concentration (MIC) (S. epidermidis; [2]) | performance against the bacteria as raw materials [1] | other results |
| --- | --- | --- | --- | --- | --- | --- |
| [Ca+2].[Cl-].[Cl-] [CaCl] |  |  | >50000 ppm | >50000 ppm |  |  |
| CCCCC(CC)COCC(O)CO (stereo not shown) [Ethylhexyl glycerin] |  |  | 12500 ppm | 12500 ppm |  |  |
| CC(C)=CCCC(C)=CCCC(C)=CCO [Farnesol] | 47500 µg/mL (≈ 214 mM) | 5940 µg/mL (≈ 26.7 mM) |  |  |  |  |
| CCCCCCCCC(CO)CCCCCC (stereo not shown) [Hexyl Decanol] |  |  | 6062 ppm | 3031 ppm |  |  |
| CCCCCCCCCCCCCC(=O)OC(C)C [Isopropyl Myristate] | > 59000 µg/mL | > 59000 µg/mL |  |  |  |  |
| CCCCC/C=C\C/C=C\CCCCCCCC(=O)O [Linoleic acid] | 3120 µg/mL (≈ 11.1 mM) | 3120 µg/mL (≈ 11.1 mM) |  |  |  |  |
| [Cl-].[Na+] [NaCl] |  |  | >25000 ppm | >25000 ppm |  |  |
| C/C(=C\CO)CCC[C@H](C)CCC[C@H](C)CCCC(C)C [Phytol] | > 49000 µg/mL | > 49000 µg/mL |  |  |  |  |
| C=CCCCCCCCCC(=O)N[C@@H](Cc1ccccc1)C(=O)O [Sepiwhite] |  |  | 2000 ppm | 1000 ppm | performing well |  |
| O=C([O-])[O-].[Ca+2] [calcium carbonate] |  |  | >2500 ppm | >2500 ppm | performing moderately well |  |
| N=C(N)c1ccc(OCCCCCCOc2ccc(C(=N)N)cc2)cc1 [hexamidine] |  |  |  |  |  | MIC (C. mucofaciens): < 2 µg/mL; MIC (S. epidermidis): 7 µg/mL (≈ 0.0197 mM) |

Now from value to compound, other results behind:

| MIC (C. mucofaciens; [2]) | MIC (S. epidermidis; [2]) | Structure (SMILES) | microbial inhibition concentration (MIC) (C. mucofaciens; [2]) | microbial inhibition concentration (MIC) (S. epidermidis; [2]) | performance against the bacteria as raw materials [1] | other results |
| --- | --- | --- | --- | --- | --- | --- |
| > 49000 µg/mL | > 49000 µg/mL | C=CC(C)(O)CCC=C(C)CCC=C(C)C (stereo not shown) [Nerolidol] |  |  |  |  |
| 1500 µg/mL (≈ 9.85 mM) | 1500 µg/mL (≈ 9.85 mM) | CC(C)=CCCC(C)=CC=O [citral] |  |  | performing well |  |
| 1530 µg/mL | 3060 µg/mL | COC(=O)CCC(=O)OC [dimethyl succinate] |  |  | performing well |  |
| 773 µg/mL (≈ 4.71 mM) | 773 µg/mL (≈ 4.71 mM) | C=CCc1ccc(O)c(OC)c1 [eugenol] |  |  | performing well |  |
| 1090 µg/mL (≈ 3.93 mM) | 1090 µg/mL (≈ 3.93 mM) | CC/C=C\C/C=C\C/C=C\CCCCCCCC(=O)O [linolenic acid] |  |  |  |  |
| < 5 µg/mL | 10 µg/mL | Cc1cc(CC(C)CC(C)(C)C)n(O)c(=O)c1.NCCO (stereo not shown) [piroctone olamine, 1-Hydroxy-4-methyl-6-(2,4,4-trimethylpentyl)-2-pyridone monoethanolamine salt, reference compound] |  |  | perform particularly well |  |
| 1600 µg/mL | 1600 µg/mL | CCOC(=O)CC(O)(CC(=O)OCC)C(=O)OCC [triethyl citrate] |  |  | performing well |  |
